Results from ChEMBL document CHEMBL1909046, “DrugMatrix in vitro pharmacology data”.

Key:
[1] = target: Beta-1 adrenergic receptor (Homo sapiens, UniProt P08588); test: DRUGMATRIX: Adrenergic beta1 radioligand binding (ligand: [125I] Cyanopindolol); type: cell membranes, CHO-K1, Membrane; conditions: cho-k1; Not Active = under 50% inhibition at 10 µM
Calcitonin receptor = target: T1, Calcitonin receptor (Homo sapiens, UniProt P30988); type: cell membranes, Membrane; conditions: t47d; further: in other assays of this panel Not Active means under 50% inhibition at 10 µM
T1 sequence (P30988 whole entry): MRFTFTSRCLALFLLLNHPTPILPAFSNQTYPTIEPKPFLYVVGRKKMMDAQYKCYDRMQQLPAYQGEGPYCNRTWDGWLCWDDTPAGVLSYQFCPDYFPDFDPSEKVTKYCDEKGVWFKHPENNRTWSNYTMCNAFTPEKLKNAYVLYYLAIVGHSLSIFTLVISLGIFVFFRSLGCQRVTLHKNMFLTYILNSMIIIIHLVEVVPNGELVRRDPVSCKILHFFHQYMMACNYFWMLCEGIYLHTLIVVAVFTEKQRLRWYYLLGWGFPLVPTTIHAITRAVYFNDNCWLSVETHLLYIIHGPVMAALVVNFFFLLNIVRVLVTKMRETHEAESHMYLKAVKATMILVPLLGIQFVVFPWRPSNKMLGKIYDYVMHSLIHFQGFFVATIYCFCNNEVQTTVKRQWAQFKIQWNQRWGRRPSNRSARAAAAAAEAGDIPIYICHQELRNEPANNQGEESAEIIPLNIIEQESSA

Endothelin-1 receptor = target: T2, Endothelin-1 receptor (Homo sapiens, UniProt P25101); type: cell membranes, Membrane; conditions: cho-k1; further: in other assays of this panel Not Active means under 50% inhibition at 10 µM
T2 sequence (P25101 whole entry): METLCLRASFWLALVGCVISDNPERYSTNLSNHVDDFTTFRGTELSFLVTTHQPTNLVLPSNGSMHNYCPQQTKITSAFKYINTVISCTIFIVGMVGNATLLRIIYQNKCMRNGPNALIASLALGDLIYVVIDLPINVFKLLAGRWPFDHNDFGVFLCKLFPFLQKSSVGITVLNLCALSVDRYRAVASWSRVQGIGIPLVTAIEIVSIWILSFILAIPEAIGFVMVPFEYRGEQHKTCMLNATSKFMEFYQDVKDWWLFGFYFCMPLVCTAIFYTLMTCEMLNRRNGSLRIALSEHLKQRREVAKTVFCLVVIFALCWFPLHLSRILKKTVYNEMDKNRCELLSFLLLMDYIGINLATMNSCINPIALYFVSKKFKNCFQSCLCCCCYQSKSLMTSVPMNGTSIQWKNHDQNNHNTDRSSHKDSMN

[2] = target: T3, Muscarinic acetylcholine receptor M4 (Homo sapiens, UniProt P08173); type: cell membranes, CHO-K1, Membrane; further: in other assays of this panel Not Active means under 50% inhibition at 10 µM
T3 sequence (P08173 whole entry): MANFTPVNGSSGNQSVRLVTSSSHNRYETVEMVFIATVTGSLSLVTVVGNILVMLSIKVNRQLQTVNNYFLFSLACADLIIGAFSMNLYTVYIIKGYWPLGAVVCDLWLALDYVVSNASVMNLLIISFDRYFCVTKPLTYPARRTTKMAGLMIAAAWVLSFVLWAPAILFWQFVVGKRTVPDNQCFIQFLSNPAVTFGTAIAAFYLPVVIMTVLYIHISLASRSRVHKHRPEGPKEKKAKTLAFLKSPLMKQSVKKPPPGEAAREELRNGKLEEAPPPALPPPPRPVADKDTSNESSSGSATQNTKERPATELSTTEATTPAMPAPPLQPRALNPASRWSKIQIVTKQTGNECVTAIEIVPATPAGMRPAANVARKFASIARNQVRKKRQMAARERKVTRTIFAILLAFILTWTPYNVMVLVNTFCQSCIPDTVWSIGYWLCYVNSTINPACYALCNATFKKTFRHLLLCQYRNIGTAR

Cathepsin G = target: T4, Cathepsin G (Homo sapiens, UniProt P08311); type: tissue-based; conditions: neutrophil;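 further: inhibition of Cathepsin G enzyme activity, tested on an AMC-conjugated peptide substrate; in other assays of this panel Not Active means under 50% inhibition at 10 µM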
T4 sequence (P08311 whole entry): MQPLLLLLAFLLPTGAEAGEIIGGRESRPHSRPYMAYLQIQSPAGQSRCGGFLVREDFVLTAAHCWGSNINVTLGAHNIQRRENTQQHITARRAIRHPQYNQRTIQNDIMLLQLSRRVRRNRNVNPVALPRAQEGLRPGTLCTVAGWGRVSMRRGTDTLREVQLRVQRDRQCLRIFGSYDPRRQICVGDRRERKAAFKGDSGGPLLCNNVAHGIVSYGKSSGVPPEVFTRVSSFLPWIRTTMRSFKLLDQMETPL

Acetylcholinesterase = Acetylcholinesterase (Homo sapiens, UniProt P22303); test: DRUGMATRIX: Acetylcholinesterase enzyme inhibition (substrate: acetylthiocholine); type: cell-based, HEK293; conditions: hek293; Not Active = under 50% inhibition at 10 µM
Adenosine receptor A1 = target: T5, Adenosine receptor A1 (Homo sapiens, UniProt P30542); type: cell membranes, CHO, Membrane; conditions: cho
T5 sequence (P30542 whole entry): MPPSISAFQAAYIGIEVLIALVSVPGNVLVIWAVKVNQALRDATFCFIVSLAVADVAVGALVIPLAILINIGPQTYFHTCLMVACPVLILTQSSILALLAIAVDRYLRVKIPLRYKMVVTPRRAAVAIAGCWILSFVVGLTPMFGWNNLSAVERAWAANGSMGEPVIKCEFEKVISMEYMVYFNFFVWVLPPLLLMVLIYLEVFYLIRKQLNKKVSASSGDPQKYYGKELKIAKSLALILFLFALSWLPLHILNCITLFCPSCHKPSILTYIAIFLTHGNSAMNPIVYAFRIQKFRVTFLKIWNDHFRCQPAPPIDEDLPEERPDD

Chain of Acetylcholinesterase (P22303 whole entry): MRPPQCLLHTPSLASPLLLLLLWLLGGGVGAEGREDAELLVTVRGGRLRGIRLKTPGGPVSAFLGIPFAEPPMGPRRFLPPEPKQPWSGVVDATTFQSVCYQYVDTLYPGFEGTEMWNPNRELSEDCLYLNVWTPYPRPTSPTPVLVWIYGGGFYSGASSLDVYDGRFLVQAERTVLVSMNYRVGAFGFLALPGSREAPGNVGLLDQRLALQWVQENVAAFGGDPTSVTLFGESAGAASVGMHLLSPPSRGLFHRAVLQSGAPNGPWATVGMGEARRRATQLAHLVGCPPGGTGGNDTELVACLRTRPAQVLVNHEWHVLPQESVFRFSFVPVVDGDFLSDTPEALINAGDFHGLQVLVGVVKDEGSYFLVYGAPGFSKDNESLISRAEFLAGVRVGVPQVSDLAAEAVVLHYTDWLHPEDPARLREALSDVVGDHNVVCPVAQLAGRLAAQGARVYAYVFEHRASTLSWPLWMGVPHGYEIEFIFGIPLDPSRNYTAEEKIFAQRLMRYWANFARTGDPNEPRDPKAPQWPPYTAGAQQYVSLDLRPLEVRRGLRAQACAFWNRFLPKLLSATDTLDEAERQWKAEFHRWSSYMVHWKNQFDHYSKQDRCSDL
Chain of Beta-1 adrenergic receptor (P08588 whole entry): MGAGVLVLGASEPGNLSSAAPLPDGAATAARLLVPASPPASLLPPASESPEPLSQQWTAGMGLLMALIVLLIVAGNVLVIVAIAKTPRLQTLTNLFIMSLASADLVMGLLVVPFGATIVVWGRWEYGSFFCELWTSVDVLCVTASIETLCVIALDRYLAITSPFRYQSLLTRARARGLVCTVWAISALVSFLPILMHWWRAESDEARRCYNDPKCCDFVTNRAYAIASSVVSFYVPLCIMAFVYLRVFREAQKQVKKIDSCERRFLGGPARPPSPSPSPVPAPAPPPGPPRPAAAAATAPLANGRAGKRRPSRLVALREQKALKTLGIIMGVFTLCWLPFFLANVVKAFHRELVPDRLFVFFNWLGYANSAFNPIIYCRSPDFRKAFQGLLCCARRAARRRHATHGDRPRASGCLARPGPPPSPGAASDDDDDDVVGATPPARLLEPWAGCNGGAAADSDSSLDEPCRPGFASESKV

## C[C@H]1O[C@H](O[C@H]2[C@H](O)[C@@H](O)[C@@H](O[C@H]3[C@H](O)[C@@H](O)C(O)O[C@@H]3CO)O[C@@H]2CO)[C@H](O)[C@@H](O)[C@@H]1N[C@H]1C=C(CO)[C@@H](O)[C@H](O)[C@H]1O (some centres undefined) [ACARBOSE]
[1]
  IC50: Not Active
Calcitonin receptor
  IC50: Not Active
Endothelin-1 receptor
  IC50: Not Active
[2]; cho-k1
  IC50: Not Active
Cathepsin G
  IC50: Not Active
Acetylcholinesterase
  IC50: Not Active
Adenosine receptor A1
  IC50: Not Active

## CN(C)C(=N)NC(=N)N [METFORMIN]
[1]
  IC50: Not Active
Calcitonin receptor
  IC50: Not Active
Endothelin-1 receptor
  IC50: Not Active
[2]; cho-k1
  IC50: Not Active
Cathepsin G
  IC50: Not Active
Acetylcholinesterase
  IC50: Not Active
Adenosine receptor A1
  IC50: Not Active

## CCc1ccc(CCOc2ccc(CC3SC(=O)NC3=O)cc2)nc1 (centres undefined) [PIOGLITAZONE]
[1]
  IC50: Not Active
Calcitonin receptor
  IC50: Not Active
Endothelin-1 receptor
  IC50: Not Active
[2]; cho-k1
  IC50: Not Active
Cathepsin G
  IC50: Not Active
Acetylcholinesterase
  IC50: Not Active
Adenosine receptor A1
  IC50: Not Active

## CN1CCN(C(c2ccccc2)c2ccccc2)CC1 [CYCLIZINE]
[1]
  IC50: Not Active
Calcitonin receptor
  IC50: Not Active
Endothelin-1 receptor
  IC50: Not Active
[2]; read-out: IC50
  IC50: 852 nM
[2]; read-out: Ki
  Ki: 119 nM
Cathepsin G
  IC50: Not Active
Acetylcholinesterase
  IC50: Not Active
Adenosine receptor A1
  IC50: Not Active

## COc1cc(OC)c(C(=O)CCCN2CCCC2)c(OC)c1 [BUFLOMEDIL]
[1]
  IC50: Not Active
Calcitonin receptor
  IC50: Not Active
Endothelin-1 receptor
  IC50: Not Active
[2]; cho-k1
  IC50: Not Active
Cathepsin G
  IC50: Not Active
Acetylcholinesterase
  IC50: Not Active
Adenosine receptor A1
  IC50: Not Active

## C[C@]12CC[C@H]3[C@@H](CCC4=CC(=O)CC[C@@H]43)[C@@H]1CC[C@@H]2O [NANDROLONE]
[1]
  IC50: Not Active
Calcitonin receptor
  IC50: Not Active
Endothelin-1 receptor
  IC50: Not Active
[2]; cho-k1
  IC50: Not Active
Cathepsin G
  IC50: Not Active
Acetylcholinesterase
  IC50: Not Active
Adenosine receptor A1
  IC50: Not Active

## CS(=O)(=O)Nc1ccc([N+](=O)[O-])cc1Oc1ccccc1 [NIMESULIDE]
[1]
  IC50: Not Active
Calcitonin receptor
  IC50: Not Active
Endothelin-1 receptor
  IC50: Not Active
[2]; cho-k1
  IC50: Not Active
Cathepsin G
  IC50: Not Active
Acetylcholinesterase
  IC50: Not Active
Adenosine receptor A1
  IC50: Not Active

## NC12CC3CC(CC(C3)C1)C2 [AMANTADINE]
[1]
  IC50: Not Active
Calcitonin receptor
  IC50: Not Active
Endothelin-1 receptor
  IC50: Not Active
[2]; cho-k1
  IC50: Not Active
Cathepsin G
  IC50: Not Active
Acetylcholinesterase
  IC50: Not Active
Adenosine receptor A1
  IC50: Not Active

## NC(=O)N1c2ccccc2CC(=O)c2ccccc21 [OXCARBAZEPINE]
[1]
  IC50: Not Active
Calcitonin receptor
  IC50: Not Active
Endothelin-1 receptor
  IC50: Not Active
[2]; cho-k1
  IC50: Not Active
Cathepsin G
  IC50: Not Active
Acetylcholinesterase
  IC50: Not Active
Adenosine receptor A1
  IC50: Not Active
